Test [1] has as its system AqSynRMH69 strain. The test can be described thus: In vitro test of minimal inhibitory concentration (MIC) of antibiotics. To be noted: for MIC, LSM: LAB susceptibility test medium pH 6.7, unit assumed; for Category: MIC compared with EFSA cut-off. The format is cell-based, Lactobacillus reuteri. As for the experimental part: The evaluated antibiotics may be the following: Ampicillin, Vancomicin, Gentamicin, Kanamycin, Streptomycin, Eritromycin, Clindamycin, Tetracyclin and Chloranphenicol. An in vitro test of minimal inhibitory concentration (MIC) aimed to evaluate antibiotic resistances was performed for the above strains (AqSynJ59 and […]69). The evaluated antibiotics were the following: Ampicillin, Vancomicin, Gentamicin, Kanamycin, Streptomycin, Clindamycin, Tetracyclin and Chloranphenicol. The microbiological cut-off values that were used for evaluating the antibiotic resistances of the strains of the present invention are the ones defined in the “Guidance on the assessment of bacterial susceptibility to antimicrobials of human and veterinary importance”, EFSA Panel on Additives and Products or Substances used in Animal Feed ([…]), European Food Safety Authority (EFSA), Parma, Italy.

The subject of test [2] is AqSynJ59 strain. The note with it: cut-off used for AqSynJ59 (Lactobacillus plantarum); cited from earlier work.
In test [3] the test system is AqSynRMH69 strain. The note with it: cut-off used for AqSynRMH69 (Lactobacillus reuteri); cited from earlier work.
The subject of test [4] is AqSynJ59 strain. The test can be described thus: In vitro test of minimal inhibitory concentration (MIC) of antibiotics. Type of test: cell-based, Lactobacillus plantarum. The note with it: for MIC, LSM: LAB susceptibility test medium pH 6.7, unit assumed; for Category: MIC compared with EFSA cut-off. How it is done: An in vitro test of minimal inhibitory concentration (MIC) aimed to evaluate antibiotic resistances was performed for the above strains (AqSynJ59 and […]69). […] The microbiological cut-off values that were used for evaluating the antibiotic resistances of the strains of the present invention are the ones defined in the “Guidance on the assessment of bacterial susceptibility to antimicrobials of human and veterinary importance”, EFSA Panel on Additives and Products or Substances used in Animal Feed ([…]), European Food Safety Authority (EFSA), Parma, Italy.

Results on eight compounds are retold here after patent US10179153B2, “Probiotic and prebiotic compositions” (AQUILON CYL SOCIEDAD LIMITADA, priority 2014, dated 2019).

Values after ≈ are worked out from the molar mass of the structure shown.

Regarding `CC1(C)S[C@@H]2[C@H](NC(=O)[C@H](N)c3ccccc3)C(=O)N2[C@H]1C(=O)O` [Ampicillin], in the test on AqSynRMH69 strain [1], the MIC, LSM is 0.25 µg/mL (≈ 0.715 µM) and the Category entry was “S”. The “EFSA (2012) values (microbiological cut-off)” value in the test with AqSynJ59 strain [2] is 2. In addition, the “EFSA (2012) values (microbiological cut-off)” value with AqSynRMH69 strain [3] is 2.

As to `O=C(N[C@H](CO)[C@H](O)c1ccc([N+](=O)[O-])cc1)C(Cl)Cl` [Chloramphenicol], the MIC, LSM with AqSynRMH69 strain [1] and against AqSynJ59 strain [4] was 2 µg/mL (≈ 6.19 µM) throughout. For the same compound, the Category entry in the test on AqSynRMH69 strain [1] and in the test with AqSynJ59 strain [4] was “S” throughout. Further, the “EFSA (2012) values (microbiological cut-off)” value is 8 in the test with AqSynJ59 strain [2] and 4 in the test with AqSynRMH69 strain [3].

Regarding `CCC[C@@H]1C[C@@H](C(=O)N[C@@H]([C@H]2O[C@H](SC)[C@H](O)[C@@H](O)[C@H]2O)[C@H](C)Cl)N(C)C1` [Clindamycin], the MIC, LSM against AqSynRMH69 strain [1] and against AqSynJ59 strain [4] was 0.125 µg/mL (≈ 0.294 µM) each time. The Category result with AqSynRMH69 strain [1] and in the test with AqSynJ59 strain [4] was “S” throughout.

In the case of `NC[C@H]1O[C@H](O[C@H]2[C@H](O)[C@@H](O[C@H]3O[C@H](CO)[C@@H](O)[C@H](N)[C@H]3O)[C@H](N)C[C@@H]2N)[C@H](O)[C@@H](O)[C@@H]1O` [Kanamycin], in the test with AqSynRMH69 strain [1], the MIC, LSM came out at 64 µg/mL (≈ 132 µM) and the Category entry is on record as “S”. In the test with AqSynJ59 strain [4], the MIC, LSM is 64 µg/mL (≈ 132 µM) and the Category entry is reported as “S”.

As for `[H]/N=C(/N)N[C@H]1[C@H](O)[C@@H](O)[C@H](O[C@@H]2O[C@@H](C)[C@](O)(C=O)[C@H]2O[C@@H]2O[C@@H](CO)[C@H](O)[C@@H](O)[C@@H]2NC)[C@@H](N/C(N)=N\[H])[C@@H]1O` [Streptomycin], in the test on AqSynRMH69 strain [1], the MIC, LSM came out at 32 µg/mL (≈ 55 µM) and the Category entry is “S”. The MIC, LSM against AqSynJ59 strain [4] was determined as 32 µg/mL (≈ 55 µM). For the same compound, the “EFSA (2012) values (microbiological cut-off)” value in the test on AqSynRMH69 strain [3] was 64.

For the compound `CN(C)[C@@H]1C(O)=C(C(N)=O)C(=O)[C@@]2(O)C(O)=C3C(=O)c4c(O)cccc4[C@@](C)(O)[C@H]3C[C@@H]12` [Tetracycline], the MIC, LSM with AqSynRMH69 strain [1] and in the test on AqSynJ59 strain [4] was 4 µg/mL (≈ 9 µM) each time. The Category entry with AqSynRMH69 strain [1] and in the test on AqSynJ59 strain [4] was “S” each time.

On to `CN[C@H](CC(C)C)C(=O)N[C@H]1C(=O)N[C@@H](CC(N)=O)C(=O)N[C@H]2C(=O)N[C@H]3C(=O)N[C@H](C(=O)N[C@H](C(=O)O)c4cc(O)cc(O)c4-c4cc3ccc4O)[C@H](O)c3ccc(c(Cl)c3)Oc3cc2cc(c3O[C@@H]2O[C@H](CO)[C@@H](O)[C@H](O)[C@H]2O[C@H]2C[C@](C)(N)[C@H](O)[C@H](C)O2)Oc2ccc(cc2Cl)[C@H]1O` [Vancomycin], for which, in the test on AqSynRMH69 strain [1], the MIC, LSM worked out at 512 µg/mL (≈ 353 µM) and the Category entry is given as “R”. Further, the MIC, LSM in the test with AqSynJ59 strain [4] amounted to 512 µg/mL (≈ 353 µM).

In the case of Gentamicin, the MIC, LSM in the test on AqSynRMH69 strain [1] was found to be 2 µg/mL; against AqSynJ59 strain [4], 1 µg/mL. The Category result with AqSynRMH69 strain [1] and in the test with AqSynJ59 strain [4] was “S” throughout. Besides, the “EFSA (2012) values (microbiological cut-off)” value in the test on AqSynJ59 strain [2] was 16; with AqSynRMH69 strain [3] it was 8.
